Data taken from the NIST ThermoML archive (doi:10.1016/j.tca.2014.05.028).
Numbers after ± are expanded uncertainties.

Tests used:
[1] = Molar enthalpy of transition or fusion; conditions: DSC
[2] = for mass density: 101 kPa, Liquid, Vibrating tube method; for Triple point temperature: DTA

SMILES | Molar enthalpy of transition or fusion ([1]; Crystal) [kcal/mol] | mass density ([2]; 298.15 K) [kg/m3] | mass density ([2]; 303.15 K) [kg/m3] | mass density ([2]; 308.15 K) [kg/m3] | mass density ([2]; 313.15 K) [kg/m3] | mass density ([2]; 318.15 K) [kg/m3] | mass density ([2]; 323.15 K) [kg/m3] | mass density ([2]; 328.15 K) [kg/m3] | mass density ([2]; 333.15 K) [kg/m3] | mass density ([2]; 338.15 K) [kg/m3] | mass density ([2]; 343.15 K) [kg/m3] | Triple point temperature ([2]; Crystal) [K] | Molar enthalpy of transition or fusion ([1]; Crystal 1) [kcal/mol] | Molar enthalpy of transition or fusion ([1]; Crystal 2) [kcal/mol] | Triple point temperature ([2]; Crystal 1) [K] | Triple point temperature ([2]; Crystal 2) [K]
CCCC[N+]1(C)CCCC1.[Br-] [1-butyl-1-methylpyrrolidinium bromide] | 3.14 ± 0.108 | 1221.19 ± 2.9 | 1217.27 ± 2.9 | 1213.38 ± 2.8 | 1209.51 ± 2.8 | 1205.66 ± 2.8 | 1201.84 ± 2.8 | 1198.05 ± 2.8 | 1194.28 ± 2.8 | 1190.53 ± 2.7 | 1186.8 ± 2.7 | 487.67 ± 0.41 | – | – | – | –
CCCCC[N+]1(C)CCCC1.[Br-] [1-methyl-1-pentylpyrrolidinium bromide] | – | 1188.96 ± 0.4 | 1185.14 ± 0.4 | 1181.35 ± 0.4 | 1177.58 ± 0.4 | 1173.84 ± 0.39 | 1170.12 ± 0.39 | 1166.42 ± 0.39 | 1162.75 ± 0.39 | 1159.1 ± 0.38 | 1155.48 ± 0.38 | – | 2.14 ± 0.0789 | 0.466 ± 0.0382 | 431.55 ± 0.41 | 326.85 ± 0.41
CCC[N+]1(C)CCCC1.[Br-] [1-methyl-1-propylpyrrolidinium bromide] | – | 1259.96 ± 1.4 | 1255.92 ± 1.4 | 1251.9 ± 1.4 | 1247.91 ± 1.4 | 1243.94 ± 1.4 | 1240 ± 1.4 | 1236.08 ± 1.4 | 1232.19 ± 1.4 | 1228.32 ± 1.3 | 1224.48 ± 1.3 | – | 2.59 ± 0.0908 | 0.698 ± 0.0478 | 476.68 ± 0.41 | 465.12 ± 0.41
